Experimental data taken from patent publication US9505779B2 (EWHA University—Industry Collaboration Foundation, priority 2010, dated 2016).
Entries after “also recorded” stand apart in the source; their conditions may differ.

What was measured:
[1] = test system: human neuroblastoma SH-SY5Y cells; experiment: In vitro neurite outgrowth assay using human neuroblastoma cells; type: cell-based; conditions: for neurite processes compared with cells treated with NGF alone (micrographs, FIG. 8) / neurite outgrowth activity: SH-SY5Y; for neurite processes compared with cells treated with NGF alone (micrographs, FIG. 8): NGF plus 1 nM compound, after 96 h of cultivation; for neurite outgrowth activity: NGF
Procedure: The relative nerve regeneration activities of the mutasynthetic analogues, 36-methyl-FK506 and 36-fluoro-FK520, compared with authentic K506 and FK520, were determined using human neuroblastoma cells. […] The cells (n=90) were randomly photographed after 96 hr of cultivation, then the number of cells with outgrowth was counted. The neurite lengths were measured on photographic prints. Duplicate wells were run in all experiments, and the entire experiment was replicated three times. Neurite length estimated from samples treated with NGF alone was used as a control (FIGS. 7 and 8).
(§1) For statistical comparisons of group differences, especially for both the T cell activation and neurite outgrowth assays, quantitative data were analyzed by one-way analysis of variance (ANOVA) followed by Fisher's t-test according to the statistical program SigmaStat® (Jandel Scientific; version 3.1).

[2] = test system: CD3/CD28-stimulated human T lymphocytes; experiment: In vitro T-cell activation assay (interleukin-2 secretion, ELISA); type: cell-based; conditions: human T-cells activated with CD3/CD28 antibodies, 0.1 and 1.0 nM compound, 16 to 20 hr; for in vitro immunosuppressive activity (interleukin-2 secreted from activated T-cells) as compared with the control group: control = activated cells without compound
Procedure: After removal of cell debris by routine centrifugation, the supernatant was subjected to ELISA (R&D Systems) to quantify the level of interleukin-2 secreted from activated T-cells. The level of interleukin-2 obtained from T cells activated with CD3/CD28 without further treatment with the above compounds was used as a control (FIG. 7).
as §1

SMILES	neurite processes compared with cells treated with NGF alone (micrographs, FIG. 8) [1]	neurite outgrowth activity ([1]; 1 nM compound)	in vitro immunosuppressive activity (interleukin-2 secreted from activated T-cells) as compared with the control group [2]	greater effect on neurite outgrowth compared with FK506 ([1]; SH-SY5Y treated with nerve growth factor (10 ng/ml), 1 nM compound, 96 hr) [%]	in vitro immunosuppressive activity (interleukin-2 secretion) against FK506 and FK520 [2]
CO[C@H]1C[C@@H](C)C/C(C)=C/[C@@H](CCF)C(=O)C[C@H](O)[C@@H](C)[C@@H](/C(C)=C/[C@@H]2CC[C@@H](O)[C@H](OC)C2)OC(=O)[C@@H]2CCCCN2C(=O)C(=O)[C@]2(O)O[C@H]1[C@@H](OC)C[C@H]2C [36-fluoro-FK520]	longer	strong neurite outgrowth activity	have the immunosuppressive activity	–	–
C=C(C)C[C@@H]1/C=C(\C)C[C@H](C)C[C@H](OC)[C@H]2O[C@@](O)(C(=O)C(=O)N3CCCC[C@H]3C(=O)O[C@H](/C(C)=C/[C@@H]3CC[C@@H](O)[C@H](OC)C3)[C@H](C)[C@@H](O)CC1=O)[C@H](C)C[C@@H]2OC [36-methyl-FK506]	longer	strong neurite outgrowth activity	significant immunosuppressive activity; also recorded: have the immunosuppressive activity	~20	not improved
C=CC[C@@H]1/C=C(\C)C[C@H](C)C[C@H](OC)[C@H]2O[C@@](O)(C(=O)C(=O)N3CCCC[C@H]3C(=O)O[C@H](/C(C)=C/[C@@H]3CC[C@@H](O)[C@H](OC)C3)[C@H](C)[C@@H](O)CC1=O)[C@H](C)C[C@@H]2OC [FK506, tacrolimus, reference compound]	longer	–	–	–	–
CC[C@@H]1/C=C(\C)C[C@H](C)C[C@H](OC)[C@H]2O[C@@](O)(C(=O)C(=O)N3CCCC[C@H]3C(=O)O[C@H](/C(C)=C/[C@@H]3CC[C@@H](O)[C@H](OC)C3)[C@H](C)[C@@H](O)CC1=O)[C@H](C)C[C@@H]2OC [FK520, ascomycin, reference compound]	exception	–	–	–	–
